In US12319655B2, “RAF kinase inhibitors and methods of use thereof” (Deciphera Pharmaceuticals, LLC, priority 2021, dated 2025):

What was measured:
[1] = biological target: C-Raf kinase (SEQ. ID NO: 3) (Homo sapiens (Human), UniProt P04049, Y340D/Y341D); assay: Biochemical Assay for C-Raf (1); conditions: Table J, assay version (1); read-out: CRAF (1) IC50
Summary of the method: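 IC50 values come from a four-parameter fit of percent inhibition, using the reaction rate over 4–5 h of a 6 h continuous 340 nm read at 30 °C. The enzyme mix was C-Raf 0.43 nM, MEK substrate 30.1 nM and ATP 1 mM, in a PK/LDH NADH-coupled format in Tris pH 7.5 with 1% DMSO.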

[2] = test system: A375 cells; assay: A375 Cell Proliferation Assay (1); type: cell-based; conditions: Homo sapiens, A-375
Summary of the method: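 Resazurin fluorescence (excitation 540 nm, emission 600 nm, after a further 5-6 h) gave IC50s from triplicate compound dilution series.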

[3] = biological target: B-Raf kinase (SEQ. ID NO: 2) (Homo sapiens (Human), UniProt P15056); assay: Biochemical Assay for B-Raf (1); conditions: Table J, assay version (1); read-out: BRAF (1) IC50
Summary of the method: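 IC50 derived by four-parameter sigmoidal fit of percent inhibition, normalised to uninhibited and reference-inhibitor controls, using reaction rates over 4–5 h. Coupled spectrophotometric readout (NADH loss at 340 nm, 6 h, 30° C.); 1 mM ATP, 30.1 nM MEK, 0.13 nM B-Raf, pH 7.5 Tris buffer, 1% DMSO.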

[4] = test system: Miapaca-2 cells; assay: MiaPaca-2 Cell Proliferation Assay (1); type: cell-based; conditions: Homo sapiens, MIA PaCa-2, single agent, read-out: MiaPaca2 (1) IC50
Summary of the method: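 Resazurin was added after compound exposure and incubated 5-6 h, then fluorescence read at 540 nm excitation and 600 nm emission to give IC50.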

Sequence of C-Raf kinase (SEQ. ID NO: 3) (P04049 307-648 Y340D/Y341D): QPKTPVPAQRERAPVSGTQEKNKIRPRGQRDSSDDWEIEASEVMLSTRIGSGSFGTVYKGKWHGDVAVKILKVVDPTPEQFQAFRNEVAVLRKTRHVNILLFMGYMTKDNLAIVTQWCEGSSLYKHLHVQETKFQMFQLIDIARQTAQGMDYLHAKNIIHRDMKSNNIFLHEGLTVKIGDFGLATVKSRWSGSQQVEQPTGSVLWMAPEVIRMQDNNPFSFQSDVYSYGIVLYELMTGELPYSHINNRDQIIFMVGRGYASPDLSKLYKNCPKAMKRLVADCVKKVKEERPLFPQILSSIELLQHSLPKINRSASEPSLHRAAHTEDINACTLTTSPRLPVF
Sequence of B-Raf kinase (SEQ. ID NO: 2) (P15056 416-766): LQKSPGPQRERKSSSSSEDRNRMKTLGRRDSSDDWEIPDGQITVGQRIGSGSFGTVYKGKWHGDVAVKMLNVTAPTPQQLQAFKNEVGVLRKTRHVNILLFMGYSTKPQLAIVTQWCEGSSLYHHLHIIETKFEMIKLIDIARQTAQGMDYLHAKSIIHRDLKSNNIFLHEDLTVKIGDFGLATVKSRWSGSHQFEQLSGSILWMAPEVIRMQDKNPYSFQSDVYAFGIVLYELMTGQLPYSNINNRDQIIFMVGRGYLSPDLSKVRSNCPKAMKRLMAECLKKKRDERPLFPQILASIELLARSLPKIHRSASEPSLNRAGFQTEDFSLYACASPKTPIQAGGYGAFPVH

| IC50 [1] [µM] | IC50 [2] [µM] | IC50 [3] [µM] | IC50 [4] [µM] | SMILES |
| --- | --- | --- | --- | --- |
| ≤ 0.1 | ≤ 0.1 | ≤ 0.1 | 1 to 10 | Cc1ncc(NC(=O)c2ccnc(C(C)(C)C#N)c2)cc1-c1cccc(-c2ccnc(NC(=O)C3CC3)c2)n1 [Example 172] |
| ≤ 0.1 | ≤ 0.1 | ≤ 0.1 | 1 to 10 | Cc1ccc(NC(=O)c2cccc(C(C)(C)C#N)c2)cc1-c1cc(OCCO)nc(-c2ccnc3c2CC(=O)N3)c1 [Example 108] |
| ≤ 0.1 | ≤ 0.1 | ≤ 0.1 | 0.5 to 1 | CC(=O)Nc1cc(-c2cncc(-c3cc(NC(=O)c4cccc(C(C)(C)C#N)c4)ccc3C)n2)ccn1 [Example 125] |
| ≤ 0.1 | ≤ 0.1 | ≤ 0.1 | 1 to 10 | CC(=O)Nc1cc(-c2cncc(-c3cc(NC(=O)c4ccnc(C5CC5)c4)ccc3C)n2)ccn1 [Example 145] |
